From patent publication US7183445B2, “Cyclohexyl derivatives as selective estrogen receptor modulators” (Janssen Pharmaceutica N.V, priority 2004, dated 2007)
Values joined by “and” are separate entries in the source; they are usually repeats but may differ in a detail not shown here. Equal entries are not always repeated. Where two headings read alike, the source gives them in different places.

Experiments:
[1] = molecular target: T1, human estrogen receptor α (Homo sapiens, UniProt P03372); experiment: Estrogen Receptor α Flash Plate Assay; conditions: displacement of radio-labeled estrogen, FlashPlate; read-out: ERα Binding IC50
T1 construct: purchased Panvera
T1 sequence (P03372 1-595): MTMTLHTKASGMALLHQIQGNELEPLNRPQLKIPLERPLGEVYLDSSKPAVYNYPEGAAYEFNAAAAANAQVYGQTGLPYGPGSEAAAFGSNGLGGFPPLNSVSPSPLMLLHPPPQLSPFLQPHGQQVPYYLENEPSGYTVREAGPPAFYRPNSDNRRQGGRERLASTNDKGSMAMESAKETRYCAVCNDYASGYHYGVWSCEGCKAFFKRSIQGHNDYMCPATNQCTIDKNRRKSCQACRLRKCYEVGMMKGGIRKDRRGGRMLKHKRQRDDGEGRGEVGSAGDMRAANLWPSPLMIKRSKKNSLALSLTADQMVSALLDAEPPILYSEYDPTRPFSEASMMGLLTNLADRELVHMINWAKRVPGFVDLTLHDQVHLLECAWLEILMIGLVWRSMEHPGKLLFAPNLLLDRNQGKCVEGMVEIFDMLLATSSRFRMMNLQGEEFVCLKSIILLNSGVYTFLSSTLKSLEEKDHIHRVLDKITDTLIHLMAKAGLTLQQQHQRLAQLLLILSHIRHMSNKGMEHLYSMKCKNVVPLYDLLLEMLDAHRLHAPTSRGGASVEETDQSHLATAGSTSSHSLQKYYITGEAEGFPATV
Method: Estrogen Receptor α Flash Plate Assay
This assay monitors binding of radio-labeled estrogen to the estrogen receptor. It is performed on a BioMek 2000 (Beckman). Plates are read in a scintillation counter (Packard TopCount), with decreased counts an indication of binding of a compound to the receptor. The assay was run according to the procedure described by Allan, et al., Anal. Biochem. (1999), 275(2), 243–247.
On day one, 100 μL of Estrogen Screening Buffer (ESB, Panvera) containing 5 mM dithiothreitol (DTT, Panvera), 0.5 μg mouse anti-estrogen receptor monoclonal antibody (SRA-1010, Stressgen) and 50 ng purified human estrogen receptor α (Panvera) were added to each well of a 96 well FlashPlate Plus plate crosslinked with goat anti-mouse antibodies (NEN Life Sciences). The plate was sealed and incubated at 4° C. overnight.
On day two, each well was washed three times with 200 μL PBS, pH 7.2, at room temperature. To each well was then added 98 μL radio-labeled estrogen (0.5 nM, which equals 6 nCi for a 120 Ci/mmol batch, Amersham), diluted in ESB and 5 mM dithiothreitol (DTT). To individual wells were then added 2.5 μL test compound diluted in 30% (v/v) dimethyl sulfoxide/50 mM HEPES, pH 7.5. The wells were mixed three times by aspiration, the plate sealed and incubated at room temperature for one hour. The wells were then counted for 1 min in a TopCount scintillation counter (Packard).
(§1) Representative compound of the present invention were tested according to the procedure described above for binding to the Estrogen Receptor α and Estrogen Receptor β, with results as listed in Table 6.

hER-β = molecular target: T2, hER-β (Homo sapiens, UniProt Q92731); experiment: Estrogen Receptor β Fluorescence Polarization Assay; conditions: displacement of Fluormone ES2, fluorescence polarization; read-out: ERβ Binding IC50
T2 construct: purchased Panvera
Excerpt: Estrogen Receptor β Fluorescence Polarization Assay
This assay monitors binding of a fluorescent analog of estrogen (Fluormone ES2, Panvera) to the estrogen receptor. Plates are read in a fluorometer that can be set to polarization mode. A decrease in […] relative to vehicle control is an indication of binding of a compound to the receptor.
It is crucial to avoid introduction of air bubbles into the reaction in each well of the 96 well plate throughout this procedure. (Bubbles on the surface of the reaction disrupt light flow, affecting the polarization reading.) However, it is also crucial to effectively mix the reaction components upon addition to the well.
On ice, a 2× standard mixture of Assay Buffer (Panvera), 10 nM DTT and 40 nM ES2 was prepared. On ice, a 2× reaction mixture of Assay Buffer (Panvera), and 20 nM hER-β (Panvera) and 40 nM ES2 was also prepared.
Dilutions of test compound were prepared in 30% (v/v) dimethyl sulfoxide/50 mM HEPES, pH 7.5. At this point, the dilutions were 40× the final required concentration.
The standard mixture at 50 μL was then added to each well. The reaction mixture at 48 μL was added to all wells. The compound dilution at 2.5 μL was added to the appropriate wells. The reaction mixtures were mixed using a manual pipette, a roll of aluminum foil adhesive cover was placed on the plate and the plate incubated at room temperature for 1 hour.
Each well on the plate was then read in an LjL Analyst with an excitation wavelength of […] and an emission wavelength of 538.
as §1

MCF-7 cells = experiment: MCF-7 Cell Proliferation Assay; format: cell-based
Method: MCF-7 Cell Proliferation Assay
This assay was run according to the procedure described by Welshons, et al., (Breast Cancer Res. Treat., 1987, 10(2), 169–75), with minor modification.
Briefly, MCF-7 cells (from Dr. C. Jordan, Northwestern University) were maintained in RPMI 1640 phenol red free medium (Gibco) in 10% FBS (Hyclone), supplemented with bovine insulin and non-essential amino acid (Sigma). The cells were initially treated with 4-hydroxytamoxifen (10^−8 M) and let stand at 37° C. for 24 hours. Following this incubation with tamoxifen, the cells were treated with compounds at various concentrations.
Compounds to be tested in the agonist mode were added to the culture media at varying concentrations. Compounds to be treated in the antagonist mode were prepared similarly, and 10 nM 17β-estradiol was also added to the culture media. The cells were incubated for 24 hours at 37° C. Following this incubation, 0.1 μCi of ^14C-thymidine (56mCi/mmol, Amersham) was added to the culture media and the cells were incubated for an additional 24 hours at 37° C. The cells were then washed twice with Hank's buffered salt solution (HBSS) (Gibco) and counted with a scintillation counter. The increase in the ^14C-thymidine in the compound treated cells relative to the vehicle control cells were reported as percent increase in cell proliferation.
(§2) Representative compound of the present invention were tested according to the procedure described in Examples 14 and 15 above, with results as listed in Table. 7.

[2] = system: Human Endometrial Ishikawa Cells; experiment: Alkaline Phosphatase Assay in Human Endometrial Ishikawa Cells; format: cell-based; conditions: for EC50: read-out: Ishikawa Agonist EC50; for IC50: read-out: Ishikawa Antagonist IC50
Method: Alkaline Phosphatase Assay in Human Endometrial Ishikawa Cells
This assay was run according to the procedure described by Albert et a., Cancer Res, […], 50(11), 330-6-10, with minor modification.
Ishikawa cells (from ATCC) were maintained in DMEM/F12 (1:1) phenol red free medium (Gibco) supplemented with 10% calf serum (Hyclone). 24 hours prior to testing, the medium was changed to DMEM/F12 (1:1) phenol red free containing 2% calf serum.
Compounds to be tested in the agonist mode were added to the culture media at varying concentrations. Compounds to be treated in the antagonist mode were prepared similarly, and 10 nM 17β-estradiol was also added to the culture media. The cells were then incubated at 37° C. for 3 days. On the fourth day, the media was remove, 1 volume of 1× Dilution Buffer (Clontech) was added to the well followed by addition of 1 volume of Assay Buffer (Clontech). The cells were then incubated at room temperature for 5 minutes. 1 volume of freshly prepared Chemiluminescence Buffer (1 volume of chemiluminescent substrate (CSPD) in 19 volume Chemiluminescent Enhancer with final concentration of CSPD at 1.25 mM; Sigma Chemical Co.) was added. The cells were incubated at room temperature for 10 minutes and then quantified on a luminometer. The increase of chemiluminescence over vehicle control was used to calculate the increase in alkaline phosphatase activity.
as §2

[3] = Homo sapiens, MCF7, agonist mode, 14C-thymidine incorporation, read-out: MCF7 Agonist EC50
[4] = Homo sapiens, MCF7, antagonist mode, 10 nM 17β-estradiol added, 14C-thymidine incorporation, read-out: MCF7 Antagonist IC50
[5] = Homo sapiens, Ishikawa, 72 h, agonist mode, alkaline phosphatase activity, 3 days
[6] = Homo sapiens, Ishikawa, 72 h, antagonist mode, 10 nM 17β-estradiol added, alkaline phosphatase activity, 3 days

T2 sequence (Q92731 whole entry): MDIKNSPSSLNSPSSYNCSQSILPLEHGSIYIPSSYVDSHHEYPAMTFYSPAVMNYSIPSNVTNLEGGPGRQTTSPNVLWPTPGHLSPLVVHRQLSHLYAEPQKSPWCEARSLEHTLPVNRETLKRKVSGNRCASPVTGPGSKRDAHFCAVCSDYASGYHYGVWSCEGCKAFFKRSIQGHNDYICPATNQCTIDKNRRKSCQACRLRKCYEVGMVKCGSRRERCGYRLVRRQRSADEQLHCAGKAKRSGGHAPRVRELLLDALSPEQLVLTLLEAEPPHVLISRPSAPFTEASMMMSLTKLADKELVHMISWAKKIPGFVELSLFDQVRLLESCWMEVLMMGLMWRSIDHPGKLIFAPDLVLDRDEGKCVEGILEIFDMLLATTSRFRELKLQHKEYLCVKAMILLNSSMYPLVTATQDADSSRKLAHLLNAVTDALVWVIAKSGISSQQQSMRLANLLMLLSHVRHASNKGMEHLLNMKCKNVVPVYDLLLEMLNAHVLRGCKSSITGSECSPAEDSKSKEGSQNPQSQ

Row | IC50 [1] | IC50 (hER-β) | EC50 (MCF-7 cells; [3]) | IC50 (MCF-7 cells; [4]) | EC50 [2, 5] | IC50 [2, 6] | Molecule | also measured
1 | 6.1 µM | 5.7 µM | – | – | – | – | CN(C)CCOc1ccc(C2=C(c3ccc(O)cc3)CCC(C)(CO)C2)cc1 (centres unmarked) [Compound 3, 4-{2-[4-(2-Dimethylamino-ethoxy)-phenyl]-4-hydroxymethyl-4-methyl-cyclohex-1-enyl}-phenol] | –
2 | 1.85 µM | 0.1 µM | 0.48 µM | > 10 µM | 0.7 µM | 4.5 µM | CCC1C(c2ccc(O)cc2)=C(c2ccc(OC)cc2)CC(CO)C1C (centres unmarked) [Compound 20, 4-[6-Ethyl-4-hydroxymethyl-2-(4-methoxy-phenyl)-5-methyl-cyclohex-1-enyl]-phenol] | –
3 | > 10 µM | < 10 µM | > 10 µM | > 10 µM | > 10 µM | > 10 µM | OC[C@@H]1CC(c2ccccc2)=C(c2ccccc2)C[C@@H]1CO [Compound 18] | –
4 | – | – | > 10 µM | > 10 µM | > 10 µM | > 10 µM | O=C1CCCC2CC(c3ccccc3)=C(c3ccccc3)CC12 (centres unmarked) [Compound 56, 6,7-Diphenyl-3,4,4a,5,8,8a-hexahydro-2H-naphthalen-1-one] | –
5 | > 10 µM | 5.7 µM | > 10 µM | > 10 µM | > 10 µM | > 10 µM | c1ccc(C2=C(c3ccccc3)CC3COCC3C2)cc1 (centres unmarked) [Compound 52] | –
6 | > 10 µM | 6.9 µM | – | – | – | – | CC1=C(C)CC(C)(CO)C(C)C1 (centres unmarked) [Compound 36] | –
7 | 0.37 µM | 0.38 µM | – | – | – | – | CC1C(CO)CC=C(c2ccc(O)cc2)C1Cc1ccc(OCCN2CCCCC2)cc1 (centres unmarked) [Compound 74] | –
8 | 0.5 µM | 1.5 µM | > 10 µM | > 10 µM | > 10 µM | > 10 µM | CC1(CO)CCC(c2ccc(O)cc2)=C(c2ccc(O)cc2)C1 (centres unmarked) [Compound 27, (1-methyl-3,4-di(4-hydroxy-phenyl)-cyclohex-3-enyl)-methanol] | –
9 | > 10 µM | > 10 µM | > 10 µM | > 10 µM | > 10 µM | > 10 µM | COc1ccc(C2=C(c3ccc(OC)cc3)CC(CO)C(CO)C2)cc1 (centres unmarked) [Compound 26, [6-Hydroxymethyl-3,4-bis-(4-methoxy-phenyl)-cyclohex-3-enyl]-methanol] | –
10 | > 10 µM | 4.9 µM | – | – | – | – | COc1ccc(C2=C(c3ccc(OC)cc3)C[C@H]3[C@H](CC[C@H]3O)C2)cc1 [Compound 57, 5,6-Bis-(4-methoxy-phenyl)-2,3,3a,4,7,7a-hexahydro-1H-inden-1R-ol] | –
11 | > 10 µM | > 10 µM | > 10 µM | > 10 µM | > 10 µM | > 10 µM | CCOC(=O)C1CC=C(c2ccc(OC)cc2)C(Cc2ccc(OCCN3CCCCC3)cc2)C1C (centres unmarked) [Compound 39] | –
12 | 0.45 µM | 0.35 µM | 0.2 µM | > 10 µM | 0.1 µM | 10 µM | CC1(CO)CC=C(c2ccc(O)cc2)CC1 (centres unmarked) [Compound 25, 4-(4-Hydroxymethyl-4-methyl-cyclohex-1-enyl)-phenol] | –
13 | 8.7 µM | 2 µM | > 10 µM | > 10 µM | > 10 µM | > 10 µM | COc1ccc(C2=C(c3ccc(OC)cc3)CC3C(CC[C@@H]3O)C2)cc1 (stereo partly drawn) [Compound 61, 5,6-Bis-(4-methoxy-phenyl)-2,3,3a,4,7,7a-hexahydro-1H-inden-1S-ol] | –

Row | Molecule | IC50 [1] | IC50 (hER-β) | EC50 (MCF-7 cells; [3]) | IC50 (MCF-7 cells; [4]) | EC50 [2, 5] | IC50 [2, 6] | also measured
14 | CCC1C(C)C(CO)CC(c2ccc(OC)cc2)C1c1ccc(O)cc1 (centres unmarked) [Compound 4, 4-[2-Ethyl-4-hydroxymethyl-6-(4-methoxy-phenyl)-3-methyl-cyclohexyl]-phenol] | > 10 µM | 1.6 µM | – | – | – | – | EC50 (MCF-7 cells; Homo sapiens, MCF7, read-out: MCF7 Agonist EC50): > 10 µM; IC50 (MCF-7 cells; Homo sapiens, MCF7, read-out: MCF7 Antagonist IC50): > 10 µM; EC50 ([2]; Homo sapiens, Ishikawa, 72 h): > 10 µM; IC50 ([2]; Homo sapiens, Ishikawa, 72 h): > 10 µM
15 | 4-(4-Hydroxy-phenyl)-[4-(2-morpholin-4-yl-ethoxy)-benzyl]-methyl-cyclohex-3-enecarboxylic acid ethyl ester [Compound 38] | – | 0.9 µM and 0.5 µM | – | – | – | – | EC50 (MCF-7 cells; agonist mode, 14C-thymidine incorporation, read-out: MCF7 Agonist EC50): > 10 µM; IC50 (MCF-7 cells; antagonist mode, 10 nM 17β-estradiol added, 14C-thymidine incorporation, read-out: MCF7 Antagonist IC50): 5 µM; EC50 ([2]; agonist mode, alkaline phosphatase activity, 3 days): > 10 µM; IC50 ([2]; antagonist mode, 10 nM 17β-estradiol added, alkaline phosphatase activity, 3 days): 2.1 µM
